Assay results as given in article PMC6832219, “Synthesis of Novel Baicalein Amino Acid Derivatives and Biological Evaluation as Neuroprotective Agents” (Molecules, 2019).

Columns and labels:
Type in all cases: cell-based
injured SH-SY5Y cells [1] = experiment: Protective effect against tert-butyl hydroperoxide-induced SH-SY5Y neurotoxicity cells (MTT assay); conditions: Homo sapiens;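 as to Proliferation Rate (%): 0% equals CoCl2-injured cells and 100% equals NGF-treated cells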
Procedure: The protective effects of baicalein derivatives in vitro was evaluated against tert-butyl, hydroperoxide-induced, SH-SY5Y neurotoxicity cells using an MTT assay. In addition, their toxicity evaluation was tested on normal H9C2 cells. The resulting proliferation rates (%) at different concentrations, as well as their 50% effective concentrations (EC50) for protecting damaged SH-SY5Y cells of the baicalein amino acid derivatives, are summarized in Table 2.
(§1) The SH-SY5Y ([…]) and H9C2 ([…]) cell lines were obtained from the Chinese Academy of Medical Sciences and Peking Union Medical College. All of the cell lines were grown in dulbecco’s modified eagle medium (DMEM) with 10% (v/v) fetal bovine serum (FBS) and 1% (v/v) penicillin/streptomycin (Thermo Technologies, New York, NY, USA), under a humidified atmosphere containing 5% CO2 at 37 °C. The baicalein derivatives were dissolved in DMSO (Sigma, St. Louis, MO, USA) and added at various concentrations to the cell culture.
(§2) The protective effect of these compounds was evaluated on SH-SY5Y and H9C2 cell lines via the MTT method. The cells growing in the logarithmic phase were cultured in 96-well plates at a density 3 × 10^3 cells/well and incubated for 24 h. Then each well was treated with the required concentrations (50 µM concentrations, 25 µM concentrations, 12.5µM concentrations, 6.25 µM concentrations, and 3.125 µM concentrations) of baicalein derivatives, and incubated 36 h at 37 °C with 5% CO2. After that, the cells were induced by H2O2 (final concentration, […]) for 12 h. Control-differentiated cells were injected with new growth media at equal amounts. Before […] MTT solution (5 mg/mL) was added to each well, the cell culture fluid was discarded, and […] fresh cell culture fluid was added. The plate was incubated for a further 4 h at 37 °C. The cell supernatant medium was removed carefully, without disturbing the attached cells, and formazan crystals were solubilized by adding 150 μL DMSO into each well. The absorbance was measured at 490 nm with a plate reader (BIORAD 550 spectrophotometer, Bio-rad Life Science Development Ltd., Beijing, China). H2O2 was dissolved in DMEM medium. Wells without drugs were used as blanks. The EC50 values were defined as the concentrations that causes the maximum effect of 50%; IC50 values were defined as the concentration of compound which gives 50% growth inhibition, and were calculated using the GraphPad Prism 5. The proliferation rates of damaged SH-SY5Y cells were calculated in the following formula (1): [OD490 (compound) − OD490 (CoCl2)]/[OD490 (NGF) − OD490 (CoCl2)] × 100%(1) The EC50 values were using the equation −pEC50 = log Cmax − log 2 × (ΣP − 0.75 + 0.25Pmax + 0.25Pmin)(2) where Cmax is the maximum concentration, ΣP is the sum of proliferation rates, Pmax is the maximum value of the proliferation rate, and Pmin is the minimum value of the proliferation rate. Cell viability was expressed as a percentage of the control.

H9C2 cells [2] = experiment: Toxicity on normal H9C2 cells (MTT assay)
Procedure: To study cytotoxicity on normal cells, the cytotoxicity of compounds against normal H9C2 cells were tested.
as §1, §2
The inhibition rate was calculated in the following equation: % inhibition = 1 − (Sample group OD/Control group OD) × 100%(3)

injured SH-SY5Y cells [3] = experiment: Morphological detection of apoptosis using Giemsa staining; conditions: 6.25, 12.5, 25 μM, 72 h
Procedure: SH-SY5Y cells in the logarithmic growth phase were seeded in 12-well plates (1.2 × 10^4 cells/well). After incubation for 24 h at 37 °C with 5% CO2, various concentrations ([…] concentrations) of compound 8 were added to the cultures, and the plate was incubated for a further 72 h. Then, we discarded the cell culture fluid, washed twice with phosphate-buffered saline (PBS), and fixed the cells with cold methanol. The SH-SY5Y cells were stained with 6% Giemsa solution for 5 min, washed with water, and dried. The cell morphological changes were observed under an inverted microscope.
Figure 2 Morphological detection of apoptosis using Giemsa staining (200×) on injured SH-SY5Y cells treated with compound 8: (a) control group, (b) injury group, (c) 6.25 μM, (d) 12.5 μM, and (e) 25 μM.

injured SH-SY5Y cells [4] = experiment: Morphological detection of apoptosis using DAPI staining; conditions: 6.25, 12.5, and 25 μM, 72 h
Procedure: To further study the mechanism of growth inhibition of compound 8 on injured SH-SY5Y cells, DAPI staining was performed. Injured SH-SY5Y cells were treated with compound 8 at […] concentrations for 72 h. […] When the concentration of the drug increased, the shape of the cells became regular.
SH-SY5Y cells in logarithmic growth phase were seeded in 12-well plates (2.4 × 10^4 cells/well). After incubation for 24 h at 37 °C in a humidified atmosphere with 5% CO2, various concentrations of compound 8 was added to the cultures, and the plate was incubated for further 72 h. After discarding the cell culture medium, washing twice with PBS, and fixing with 4% paraformaldehyde for 10 min, 4′,6-diamidino-2-phenylindole (DAPI, 1 mg/mL, Molecular Probes/Invitrogen Life Technologies, Carlsbad, CA, USA), staining was performed for 5 min in the dark, and nuclear fragments were observed under fluorescence microscope.
Figure 3 Morphological detection of apoptosis using 4′,6-diamidino-2-phenylindole (DAPI) staining (200×) on injured SH-SY5Y cells treated with compound 8, (a) control group, (b) injury group, (c) 6.25 μM, (d) 12.5 μM, and (e) 25 μM.

H9C2 cells [5] = experiment: Toxicity on normal H9C2 cells (MTT assay); conditions: read-out: Survival Rate (%)

For O=C(NC(Cc1ccccc1)C(=O)Oc1c(O)cc2oc(-c3ccccc3)cc(=O)c2c1O)OCc1ccccc1 (stereo not drawn) [Compound 8, 5,7-dihydroxy-4-oxo-2-phenyl-4H-chromen-6-yl 2-{[(benzyloxy)carbonyl]amino}-3-phenyl-proppanpate], the viability at 3.125 µM (injured SH-SY5Y cells [1]; 3.125 µM, injured SH-SY5Y cells, read-out: Proliferation Rate (%)) was 52.5%, the viability at 6.25 µM (injured SH-SY5Y cells [1]; 6.25 µM, injured SH-SY5Y cells, read-out: Proliferation Rate (%)) was 75.1% and the viability at 12.5 µM (injured SH-SY5Y cells [1]; 12.5 µM, injured SH-SY5Y cells, read-out: Proliferation Rate (%)) was 83.1%. The viability at 25 µM (injured SH-SY5Y cells [1]; 25 µM, injured SH-SY5Y cells, read-out: Proliferation Rate (%)) was 87.3%, the viability at 50 µM (injured SH-SY5Y cells [1]; 50 µM, injured SH-SY5Y cells, read-out: Proliferation Rate (%)) was 94% and the EC50 (injured SH-SY5Y cells [1]; tert-butyl hydroperoxide-induced SH-SY5Y neurotoxicity, read-out: EC50 for protecting injured SH-SY5Y cells) was 4.31 µM. It also gave a viability at 6.25 µM (H9C2 cells [2]; 6.25 µM, H9C2 cells, MTT, read-out: Survival Rate (%)) of 195%, a viability at 12.5 µM (H9C2 cells [2]; 12.5 µM, H9C2 cells, MTT, read-out: Survival Rate (%)) of 182% and a viability at 25 µM (H9C2 cells [2]; 25 µM, H9C2 cells, MTT, read-out: Survival Rate (%)) of 169%. For the same molecule, the viability at 50 µM (H9C2 cells [2]; 50 µM, H9C2 cells, MTT, read-out: Survival Rate (%)) was 168%, the “Toxicity against H9C2 cells (in words)” value (H9C2 cells [2]; normal H9C2 cells) was “lower toxicity on the H9C2 cell line” and the IC50 (H9C2 cells [2]; normal H9C2 cells, MTT) was > 100 µM. The “Nuclear and cytoplasmic morphological changes (Giemsa staining)” value (injured SH-SY5Y cells [3]) was “alleviating morphological manifestations of cell damage”, the “Nuclear morphology / apoptosis (DAPI staining)” value (injured SH-SY5Y cells [4]) was “protects injured SH-SY5Y cells from apoptosis” and the viability at 100 µM (H9C2 cells [5]) was 168%.
